These results are taken from US12329754B2 (priority 2018, dated 2025).

The subject of data set [1] is MARV-GP/HIV-luc pseudovirus. As to the kind of experiment: microbe, parasite or virus in culture. The data set is classed as cell-based. The following applies: read-out: EC50 against the Marburg virus entering the host.
In data set [2] the test system is EBOV-Zaire GP/HIV-luc pseudovirus. As to the kind of experiment: organism not typed. The data set is classed as cell-based, Zaire ebolavirus. To be noted: for EC50: HEK-293T, read-out: half-maximum effect concentration (EC50) against EBOV.
The subject of data set [3] is LASV-GP/HIV-luc pseudovirus. Description: organism not typed. Type of data set: cell-based. The following applies: read-out: EC50 against the Lassa virus entering the host.
Data set [4] has as its system EBOV-Zaire GP/HIV-luc pseudovirus. Type of data set: cell-based, Zaire ebolavirus.

Structures can show the parent of a compound that is named as a salt. Where two headings read alike, the source gives them in different places.

`COc1cc2c3cc1Oc1c(OC)c(OC)cc4c1[C@@H](Cc1ccc(O)c(c1)Oc1ccc(cc1)C[C@@H]3N(C)CC2)N(C)CC4` [berbamine dihydrochloride]: the EC50 amounted to 990 nM in data set [1], 490 nM in data set [2] (48 h), 490 nM in data set [2] and 2640 nM in data set [3]. In addition, the “effect on cell activity (CCK-8, OD 450 nm)” value in the data set with 293T cells was “no significant effect”. Further, the “inhibition rate on the EBOV-Zaire GP/HIV-luc pseudovirus” value in data set [2] is recorded as “over 80%”.
For `O=C1Nc2ccc(Cl)cc2[C@@](C#CC2CC2)(C(F)(F)F)O1` [efavirenz], in data set [4], the “inhibition effect on the virus when added at 6 h (TOA)” value is “still had an inhibition effect”.
